In assay [1] the target is T1, Non-receptor tyrosine-protein kinase TYK2 (Homo sapiens, UniProt P29597). Description: Selectivity interaction (KinomeScan (DiscoverX)) EUB0000607a TYK2. The following applies: at 10 µM.
The target of assay [2] is MAP/microtubule affinity-regulating kinase 3 (Homo sapiens) (UniProt P27448). The following applies: at 10 µM.
Assay [3] concerns the target T2, Tyrosine-protein kinase ITK/TSK (Homo sapiens) (UniProt Q08881).
T2 sequence (whole entry): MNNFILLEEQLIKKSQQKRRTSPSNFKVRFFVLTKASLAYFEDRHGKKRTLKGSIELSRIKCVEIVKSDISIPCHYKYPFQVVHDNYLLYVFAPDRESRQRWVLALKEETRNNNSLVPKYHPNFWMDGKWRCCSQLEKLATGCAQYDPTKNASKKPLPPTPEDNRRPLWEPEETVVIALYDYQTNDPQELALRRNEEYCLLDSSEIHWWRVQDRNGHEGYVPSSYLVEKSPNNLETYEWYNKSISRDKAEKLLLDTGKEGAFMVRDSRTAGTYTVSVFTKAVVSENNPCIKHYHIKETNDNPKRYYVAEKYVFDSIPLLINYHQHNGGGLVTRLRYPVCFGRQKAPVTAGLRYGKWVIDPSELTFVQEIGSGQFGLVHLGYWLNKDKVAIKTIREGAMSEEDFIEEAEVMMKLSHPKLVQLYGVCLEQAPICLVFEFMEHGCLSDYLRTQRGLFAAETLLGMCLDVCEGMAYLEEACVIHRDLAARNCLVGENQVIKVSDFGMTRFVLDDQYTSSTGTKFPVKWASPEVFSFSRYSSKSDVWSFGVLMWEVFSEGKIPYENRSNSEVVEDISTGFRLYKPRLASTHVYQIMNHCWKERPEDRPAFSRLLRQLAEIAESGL
Description: Selectivity interaction (KinomeScan (DiscoverX)) EUB0000229b ITK. The following applies: at 10 µM.

The target of assay [4] is Protein-tyrosine kinase 2-beta (Homo sapiens) (UniProt Q14289). The assay can be described thus: Selectivity interaction (Kinase panel (Invitrogen)) EUB0000639a PTK2B. The following applies: at 200 nM.
Sequence of Protein-tyrosine kinase 2-beta (Homo sapiens) (Q14289 whole entry, looked up): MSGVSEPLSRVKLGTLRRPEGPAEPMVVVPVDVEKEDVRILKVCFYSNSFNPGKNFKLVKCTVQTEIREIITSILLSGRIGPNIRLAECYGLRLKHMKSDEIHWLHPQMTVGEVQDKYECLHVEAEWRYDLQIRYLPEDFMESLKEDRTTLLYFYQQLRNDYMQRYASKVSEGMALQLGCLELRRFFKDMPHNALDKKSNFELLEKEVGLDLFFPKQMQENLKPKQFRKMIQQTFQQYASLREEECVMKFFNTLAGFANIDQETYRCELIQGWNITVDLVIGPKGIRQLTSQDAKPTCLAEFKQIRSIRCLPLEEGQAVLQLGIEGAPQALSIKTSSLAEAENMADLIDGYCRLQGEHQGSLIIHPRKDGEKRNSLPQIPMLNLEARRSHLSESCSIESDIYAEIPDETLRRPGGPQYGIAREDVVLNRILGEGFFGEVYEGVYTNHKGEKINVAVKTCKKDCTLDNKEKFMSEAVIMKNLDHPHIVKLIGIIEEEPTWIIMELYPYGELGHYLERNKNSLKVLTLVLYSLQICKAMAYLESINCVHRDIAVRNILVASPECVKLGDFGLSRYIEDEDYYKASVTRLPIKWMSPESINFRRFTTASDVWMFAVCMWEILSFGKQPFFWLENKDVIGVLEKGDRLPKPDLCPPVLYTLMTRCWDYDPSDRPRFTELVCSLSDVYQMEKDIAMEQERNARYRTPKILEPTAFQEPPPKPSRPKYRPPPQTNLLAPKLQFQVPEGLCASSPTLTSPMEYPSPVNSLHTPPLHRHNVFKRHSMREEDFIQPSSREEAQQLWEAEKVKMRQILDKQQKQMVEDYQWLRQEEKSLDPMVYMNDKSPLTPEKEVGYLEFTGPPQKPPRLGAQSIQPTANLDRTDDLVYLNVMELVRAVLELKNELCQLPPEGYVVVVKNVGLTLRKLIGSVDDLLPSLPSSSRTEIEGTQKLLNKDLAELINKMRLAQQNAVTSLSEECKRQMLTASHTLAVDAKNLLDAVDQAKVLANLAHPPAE
Assay [5] concerns the target Protein kinase C delta type (Homo sapiens) (UniProt Q05655). The assay can be described thus: Selectivity interaction (ActivX KiNativ screen (kinase selectivity in THP-1 cell lysates)) EUB0000639a PRKCD. It counts as subcellular. The following applies: lysate.
In assay [6] the target is Ribosomal protein S6 kinase alpha-6 (Homo sapiens, UniProt Q9UK32). Description: Selectivity interaction (Kinase screening (Nanosyn)) EUB0000604a RPS6KA6.
Assay [7] has as its target Tyrosine-protein kinase Fer (Homo sapiens) (UniProt P16591). Description: Selectivity interaction (Kinase screening (Nanosyn)) EUB0000604a FER.
Assay [8] deals with T1, Non-receptor tyrosine-protein kinase TYK2. Description: Selectivity interaction (KinomeScan (DiscoverX)) EUB0001049a TYK2. The following applies: at 1 µM.
Assay [9] has as its target T3, Serine/threonine-protein kinase D1 (Homo sapiens) (UniProt Q15139).
T3 sequence (whole entry): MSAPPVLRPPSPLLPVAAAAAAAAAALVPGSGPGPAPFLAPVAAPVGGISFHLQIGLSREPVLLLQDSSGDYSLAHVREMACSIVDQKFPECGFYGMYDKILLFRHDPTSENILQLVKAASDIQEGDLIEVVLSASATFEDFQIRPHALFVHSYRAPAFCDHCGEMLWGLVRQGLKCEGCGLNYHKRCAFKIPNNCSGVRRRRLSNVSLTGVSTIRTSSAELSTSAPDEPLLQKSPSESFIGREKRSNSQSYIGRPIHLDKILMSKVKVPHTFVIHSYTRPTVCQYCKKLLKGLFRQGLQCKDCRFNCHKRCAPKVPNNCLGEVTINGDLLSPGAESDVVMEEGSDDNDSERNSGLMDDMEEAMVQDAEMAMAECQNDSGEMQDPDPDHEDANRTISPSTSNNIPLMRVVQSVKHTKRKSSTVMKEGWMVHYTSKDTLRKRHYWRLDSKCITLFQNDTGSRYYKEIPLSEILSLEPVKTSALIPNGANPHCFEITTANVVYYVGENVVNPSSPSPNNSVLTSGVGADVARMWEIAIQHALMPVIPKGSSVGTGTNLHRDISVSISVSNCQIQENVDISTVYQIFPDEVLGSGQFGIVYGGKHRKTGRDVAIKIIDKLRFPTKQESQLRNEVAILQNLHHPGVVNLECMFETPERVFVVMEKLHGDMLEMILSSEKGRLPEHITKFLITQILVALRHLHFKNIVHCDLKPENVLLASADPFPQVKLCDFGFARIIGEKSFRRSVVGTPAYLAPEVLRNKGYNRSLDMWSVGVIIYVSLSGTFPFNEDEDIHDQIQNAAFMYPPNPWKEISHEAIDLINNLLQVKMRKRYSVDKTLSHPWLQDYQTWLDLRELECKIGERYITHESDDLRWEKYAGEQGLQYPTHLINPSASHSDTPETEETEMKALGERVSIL
The assay can be described thus: Selectivity interaction (KinomeScan (DiscoverX)) EUB0000695a PRKD1. The following applies: at 100 nM.

Assay [10] addresses Histone-lysine N-methyltransferase ASH1L (Homo sapiens) (UniProt Q9NR48). Description: Selectivity interaction (Human bromodomain panel (DSF assay)) EUB0000233b ASH1L. (Differential scanning fluorimetry follows unfolding on heating by fluorescence.)
Assay [11] deals with Insulin receptor-related protein (Homo sapiens) (UniProt P14616). The assay can be described thus: Selectivity interaction (KinomeScan (DiscoverX)) EUB0000045b INSRR.
Sequence of Insulin receptor-related protein (Homo sapiens) (P14616 27-742 limits assumed): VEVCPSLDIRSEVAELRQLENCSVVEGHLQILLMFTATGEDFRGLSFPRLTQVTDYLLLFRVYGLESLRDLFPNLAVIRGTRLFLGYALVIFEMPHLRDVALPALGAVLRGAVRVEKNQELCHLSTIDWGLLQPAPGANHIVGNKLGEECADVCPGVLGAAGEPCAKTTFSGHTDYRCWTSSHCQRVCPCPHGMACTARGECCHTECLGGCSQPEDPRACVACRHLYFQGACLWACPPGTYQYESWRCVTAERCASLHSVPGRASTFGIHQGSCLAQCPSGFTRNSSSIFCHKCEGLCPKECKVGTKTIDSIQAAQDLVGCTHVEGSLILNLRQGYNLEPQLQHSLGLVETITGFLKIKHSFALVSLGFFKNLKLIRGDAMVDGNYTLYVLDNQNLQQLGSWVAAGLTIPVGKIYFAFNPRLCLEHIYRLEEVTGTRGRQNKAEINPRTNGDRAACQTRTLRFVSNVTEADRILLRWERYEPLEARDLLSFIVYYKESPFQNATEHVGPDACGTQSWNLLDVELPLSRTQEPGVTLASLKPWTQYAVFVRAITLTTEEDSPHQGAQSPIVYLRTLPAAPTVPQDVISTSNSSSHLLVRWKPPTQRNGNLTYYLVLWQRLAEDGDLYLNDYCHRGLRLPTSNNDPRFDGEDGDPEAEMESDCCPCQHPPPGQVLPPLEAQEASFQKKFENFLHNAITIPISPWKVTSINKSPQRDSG
Sequence of Insulin receptor-related protein (Homo sapiens) (P14616 747-1297 limits assumed): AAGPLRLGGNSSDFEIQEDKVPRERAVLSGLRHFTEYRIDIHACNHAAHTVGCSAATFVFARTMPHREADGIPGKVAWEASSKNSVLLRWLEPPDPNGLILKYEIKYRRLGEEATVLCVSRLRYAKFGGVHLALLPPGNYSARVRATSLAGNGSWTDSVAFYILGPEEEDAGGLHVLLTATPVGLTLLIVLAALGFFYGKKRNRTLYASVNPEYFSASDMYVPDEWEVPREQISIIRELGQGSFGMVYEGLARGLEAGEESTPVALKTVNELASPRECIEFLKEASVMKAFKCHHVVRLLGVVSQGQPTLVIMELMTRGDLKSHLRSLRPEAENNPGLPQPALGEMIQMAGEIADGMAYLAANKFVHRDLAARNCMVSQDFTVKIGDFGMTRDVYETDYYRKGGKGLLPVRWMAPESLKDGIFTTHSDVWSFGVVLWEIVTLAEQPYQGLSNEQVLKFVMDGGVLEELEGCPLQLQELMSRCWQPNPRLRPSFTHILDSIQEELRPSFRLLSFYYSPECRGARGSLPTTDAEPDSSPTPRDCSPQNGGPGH

This note sets out measurements from ChEMBL document CHEMBL5465560, “Selectivity Literature for EUbOPEN Chemogenomic Library” (2024).

Each structure is given as a SMILES string. Where only a bound is given, the exact number is not on record here.

Sequence of Protein kinase C delta type (Homo sapiens) (Q05655 whole entry, looked up): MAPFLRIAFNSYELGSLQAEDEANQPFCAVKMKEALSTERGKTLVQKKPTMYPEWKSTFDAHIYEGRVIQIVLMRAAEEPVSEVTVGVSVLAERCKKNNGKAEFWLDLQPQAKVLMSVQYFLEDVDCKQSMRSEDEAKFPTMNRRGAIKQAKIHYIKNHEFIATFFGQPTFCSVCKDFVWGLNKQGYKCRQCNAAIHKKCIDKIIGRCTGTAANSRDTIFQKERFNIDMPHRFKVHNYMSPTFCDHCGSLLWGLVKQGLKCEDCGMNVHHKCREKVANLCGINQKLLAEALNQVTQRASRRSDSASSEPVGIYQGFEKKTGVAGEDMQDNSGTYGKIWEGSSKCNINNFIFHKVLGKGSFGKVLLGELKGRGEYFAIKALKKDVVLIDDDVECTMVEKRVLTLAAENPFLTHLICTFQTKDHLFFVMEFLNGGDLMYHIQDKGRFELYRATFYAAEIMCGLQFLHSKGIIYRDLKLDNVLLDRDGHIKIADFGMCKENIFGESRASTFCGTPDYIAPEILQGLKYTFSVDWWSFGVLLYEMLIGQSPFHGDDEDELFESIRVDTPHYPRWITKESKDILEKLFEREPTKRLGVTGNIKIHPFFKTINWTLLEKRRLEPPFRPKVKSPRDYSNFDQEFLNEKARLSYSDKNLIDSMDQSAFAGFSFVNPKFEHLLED
T1 sequence (P29597 whole entry): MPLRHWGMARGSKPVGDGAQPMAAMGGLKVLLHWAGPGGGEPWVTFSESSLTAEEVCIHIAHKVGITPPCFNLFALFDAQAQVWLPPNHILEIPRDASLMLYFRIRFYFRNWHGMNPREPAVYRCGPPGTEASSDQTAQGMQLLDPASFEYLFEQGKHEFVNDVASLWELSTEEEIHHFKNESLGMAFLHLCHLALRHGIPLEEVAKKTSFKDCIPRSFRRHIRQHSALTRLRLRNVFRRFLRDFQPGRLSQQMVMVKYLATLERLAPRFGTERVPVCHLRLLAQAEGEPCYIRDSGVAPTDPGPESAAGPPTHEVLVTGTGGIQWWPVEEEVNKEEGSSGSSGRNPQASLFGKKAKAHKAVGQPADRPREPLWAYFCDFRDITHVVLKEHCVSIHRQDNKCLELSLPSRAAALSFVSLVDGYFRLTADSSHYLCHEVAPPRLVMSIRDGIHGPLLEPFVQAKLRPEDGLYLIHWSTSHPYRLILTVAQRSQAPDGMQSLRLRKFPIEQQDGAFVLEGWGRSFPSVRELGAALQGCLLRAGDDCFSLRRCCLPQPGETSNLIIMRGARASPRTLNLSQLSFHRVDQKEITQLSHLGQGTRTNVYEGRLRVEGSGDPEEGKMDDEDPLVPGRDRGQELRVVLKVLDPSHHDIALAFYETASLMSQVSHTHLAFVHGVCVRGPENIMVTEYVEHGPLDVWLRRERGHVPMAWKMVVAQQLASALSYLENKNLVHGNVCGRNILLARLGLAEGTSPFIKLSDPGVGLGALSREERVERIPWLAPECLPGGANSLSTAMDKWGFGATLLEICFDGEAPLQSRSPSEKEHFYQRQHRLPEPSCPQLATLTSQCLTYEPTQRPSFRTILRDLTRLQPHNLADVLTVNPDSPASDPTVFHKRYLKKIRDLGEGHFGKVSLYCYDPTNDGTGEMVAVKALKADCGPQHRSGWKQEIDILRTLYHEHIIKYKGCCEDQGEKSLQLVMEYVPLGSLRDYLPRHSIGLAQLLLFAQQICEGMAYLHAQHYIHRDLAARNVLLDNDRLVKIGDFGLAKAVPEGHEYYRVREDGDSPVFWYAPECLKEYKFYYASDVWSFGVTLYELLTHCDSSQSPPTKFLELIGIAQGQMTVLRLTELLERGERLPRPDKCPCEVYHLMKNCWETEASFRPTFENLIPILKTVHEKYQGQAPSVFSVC
Sequence of Tyrosine-protein kinase Fer (Homo sapiens) (P16591 whole entry, looked up): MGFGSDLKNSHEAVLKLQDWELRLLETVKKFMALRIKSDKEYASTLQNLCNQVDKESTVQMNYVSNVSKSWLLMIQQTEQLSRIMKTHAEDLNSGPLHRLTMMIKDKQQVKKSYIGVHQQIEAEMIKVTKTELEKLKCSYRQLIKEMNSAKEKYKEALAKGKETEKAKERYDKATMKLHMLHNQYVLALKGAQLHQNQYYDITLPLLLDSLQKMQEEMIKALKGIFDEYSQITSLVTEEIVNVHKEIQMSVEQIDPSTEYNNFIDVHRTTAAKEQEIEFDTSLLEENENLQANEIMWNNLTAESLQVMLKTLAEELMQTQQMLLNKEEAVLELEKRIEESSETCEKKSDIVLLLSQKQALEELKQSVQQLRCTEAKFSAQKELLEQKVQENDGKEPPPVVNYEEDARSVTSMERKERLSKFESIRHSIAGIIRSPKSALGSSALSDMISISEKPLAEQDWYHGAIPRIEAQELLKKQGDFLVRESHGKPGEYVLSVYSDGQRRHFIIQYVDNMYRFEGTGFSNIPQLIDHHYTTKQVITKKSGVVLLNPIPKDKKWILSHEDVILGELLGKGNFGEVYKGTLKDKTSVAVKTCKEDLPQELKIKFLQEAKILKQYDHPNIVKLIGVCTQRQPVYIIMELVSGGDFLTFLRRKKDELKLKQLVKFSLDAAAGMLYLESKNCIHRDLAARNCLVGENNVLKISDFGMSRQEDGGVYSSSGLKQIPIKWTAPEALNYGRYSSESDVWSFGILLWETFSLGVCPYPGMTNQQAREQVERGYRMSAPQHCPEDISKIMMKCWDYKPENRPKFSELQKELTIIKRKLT

Consider `CNC(=O)Nc1ccc(-c2nc(N3CC4CCC(C3)O4)c3cnn(C4CCC5(CC4)OCCO5)c3n2)cc1`, for which the % of control in assay [1] was found to be 100%. `Cc1cc([C@@H](C)Nc2ccccc2C(=O)O)c2nc(N3CCOCC3)cc(=O)n2c1` [AZD-6482]: the % of control in assay [2] was 89%. On to `COc1cc(N(C)c2ccnc3ccc(C(F)(F)F)cc23)cc(OC)c1OC`, for which the % binding in assay [3] turned out to be 94%. For `CC[C@@H]1[C@H](F)C(=O)N[C@@H]1COc1nccc2cc(C(N)=O)c(OC)cc12` [ZIMLOVISERTIB], the % of inhibition in assay [4] is -0.0574%; in [5] (at 0.01 µM) it was -1%; in assay [5] (at 0.04 µM) it was -2%; in assay [5] (at 0.2 µM), 1.3%; in assay [5] (at 1 µM), 7.2%; in assay [5] (at 5 µM), -13.1%. As for `Cc1cnc(Nc2ccc(F)cc2Cl)nc1-c1c[nH]c(C(=O)N[C@H](CO)c2cccc(Cl)c2)c1`, the values for the % of inhibition in [6] and in assay [7] were 11% and 3%, respectively.

On to `COc1cc(Nc2nc(C)cc(-c3cnn4nc(OC)ccc34)n2)cc(C(F)(F)F)c1`, for which, in assay [8], the % of control came to 61%. With `Cc1cc(F)c(C(=O)Nc2cccc(-c3nncn3C(C)C)n2)cc1-n1cnc(C2CC2)c1`, in assay [9], the % of control worked out at 8.7%. In assay [10], `CN(C)CCCOc1ccc(-c2cc(NCCCn3cccn3)nc(S(C)(=O)=O)n2)cc1` showed a dTM of less than 2 K. Take `C=CC(=O)Nc1cc(-n2c(=O)ccc3cnc4ccc(-c5ccc(NS(C)(=O)=O)cc5)cc4c32)ccc1C`: the % of control came to 98% in assay [11] (at 1 µM) and 100% in [11] (at 10 µM).
